Data from patent US20070059382A1 (Board of Regents, Univ. and Comm. College System of …, priority 2005, published 2007).
Values joined by “and” are separate entries in the source; they are usually repeats but may differ in a detail not shown here. Equal values may be shown once. “Also recorded” adds a separate entry of the source. Read-outs that look alike come from different tables or passages of the source.

Experiments:
ZR-75-1 [1] = assay: Cell attachment (reattachment after trypsin harvest)
MCF-7 [2] = assay: as above
DU-145 = conditions: cited from earlier work
ZR-75-1 [3] = assay: Detachment of growing cells (attached and floating cells); type: cell-based, human; conditions: seven days, 0.5 to 10 mM boric acid
Excerpt: We quantified the attached and floating cells. The data is shown below in FIG. 7.

PC-3 = conditions: cited from earlier work
[4] = in vivo; cited from earlier work
DU-145 cells = conditions: cited from earlier work
[5] = test system: non-tumorigenic prostate cell lines; conditions: cited from earlier work
[6] = test system: cyclins A-E and MAPK proteins; conditions: cited from earlier work
MCF-7 [7] = conditions: 1 mM
LNCaP tumor = conditions: nude mice, 1.7 and 9.0 mgB/Kg/day; cited from earlier work
ZR-75-1 [8] = test system: ZR-75-1
LNCaP = conditions: cited from earlier work
HeLa cells = assay: Growth of HeLa cells (express the NaBC1 transporter); type: cell-based; conditions: 1 mM
[9] = humans, chronic (about 1 g of boric acid); cited from earlier work
[10] = in vivo; cited from earlier work; remark: listed apart in the source
[11] = treated three days, then boric acid removed

With `[Cl][Mn][Cl]` [MnCl2, reference compound] the “effect on cell attachment” value (ZR-75-1 [1]) was “stimulates attachment”, the “percentage of cells that had reattached” value (ZR-75-1 [1]) was 42.6 ± 12.0% and 67.3 ± 12.0% and 70.2 ± 1.4% and 77.8 ± 13.6% and the “effect on cell attachment” value (MCF-7 [2]) was “stimulates attachment”. The “percentage of cells that had reattached” value (MCF-7 [2]) was 53.9 ± 12.3% and 69.4 ± 2.9% and 74.9 ± 3.6% and 81.5 ± 9.9%.

In the case of `OB(O)O` [boric acid], the “growth inhibition” value (DU-145) is given as “inhibits the growth”, the “growth inhibition” value (DU-145; listed as BA) is given as “sensitive” and the “cell detachment / floating cells” value (ZR-75-1 [3]) is given as “causing breast cancer cells to detach and undergo apoptosis; also recorded: cells were seen floating in the media”. The “growth inhibition” value (PC-3) was “inhibits the growth”, the “growth inhibition” value (PC-3; listed as BA) was “much less sensitive” and the “fraction excreted in the urine” value [4] was “about 85%”. For the same molecule, the half-life [4] was “about 21 hrs”, the “time to excretion in the urine after ingestion” value [4] was at most 24 h and the “effect on cell attachment” value (ZR-75-1 [1]; ZR-75-1, 1 mM (Experiments 1, 2)) was “inhibit the attachment; also recorded: inhibited their reattachment”. The “effect on cell attachment” value (ZR-75-1 [1]; ZR-75-1, 1 mM (Experiments 1, 2), listed as BA) was “did not”, the “percentage of cells that had reattached” value (ZR-75-1 [1]; ZR-75-1, 30 min, 1 mM each compound) was 24.5 ± 5.2% and the “percentage of cells that had reattached” value (ZR-75-1 [1]; ZR-75-1, 60 min, 1 mM each compound) was 74.1 ± 26.1%. For the same molecule, the “percentage of cells that had reattached” value (ZR-75-1 [1]; ZR-75-1, 90 min, 1 mM each compound) was 98.2 ± 34.0%, the “percentage of cells that had reattached” value (ZR-75-1 [1]; ZR-75-1, 120 min, 1 mM each compound) was 104.0 ± 16.1% and the “adhesion, migration and invasion potential” value (DU-145 cells) was “reduced”. For the same molecule, the “growth inhibition” value [5] was “not”, the “change in cyclins A-E and MAPK proteins” value [6] was “dose-dependent reduction” and the “growth inhibition” value (MCF-7 [7]) was “not growth inhibited; also recorded: no growth inhibition; also recorded: much less sensitive”. The “inhibition of LNCaP tumor growth” value (LNCaP tumor) was “about 30%”, the “growth inhibition” value (ZR-75-1 [8]; 1 mM) was “sensitive; also recorded: growth inhibition; also recorded: very sensitive” and the “time to resume normal growth rate after boric acid removal” value (ZR-75-1 [8]; [11]) was “about three”. The “effect on cell attachment” value (MCF-7 [2]; MCF-7, 1 mM (Experiments 3, 4)) was “did not”, the “percentage of cells that had reattached” value (MCF-7 [2]; MCF-7, 30 min, 1 mM each compound) was 53.5 ± 3.0% and the “percentage of cells that had reattached” value (MCF-7 [2]; MCF-7, 60 min, 1 mM each compound) was 92.6 ± 9.1%. For the same molecule, the “percentage of cells that had reattached” value (MCF-7 [2]; MCF-7, 90 min, 1 mM each compound) was 105.7 ± 6.8%, the “percentage of cells that had reattached” value (MCF-7 [2]; MCF-7, 120 min, 1 mM each compound) was 97.5 ± 4.1% and the “growth inhibition” value (SK-BR-3; 1 mM) was “growth inhibition”. The “time to resume normal growth rate after boric acid removal” value (SK-BR-3; [11]) was “about three”, the “growth inhibition” value (LNCaP) was “inhibits the growth” and the “growth inhibition” value (LNCaP; listed as BA) was “much less sensitive”. For the same molecule, the “growth inhibition” value (HeLa cells) was “very little inhibition” and the “chronic intake with no adverse effects” value [9] was 2.5 mg/kg/day.

For `[B]` [boron], the “Tolerable Upper Intake Level (UL)” value [10] is listed as 20 mg/day.
